Where two headings read alike, the source gives them in different places.
Key:
[1] = repeated dose toxicity study (39-week); conditions: dog, in vivo; dogs, 39-week repeated dose; Biophytis, unpublished data; read-out: No Observed Adverse Effect Level (NOAEL)
Source text: (§1) More recently, a purified to pharmaceutical grade 20E (≥97% 20E purity) was used as a drug candidate in preclinical regulatory studies including safety pharmacology, genotoxicity and repeated toxicology in rodents (rats) and non-rodents (dog).

[2] = genotoxicity (preclinical regulatory studies); conditions: Biophytis, unpublished data
Source text: as §1

C2C12 cells = system: C2C12 cells; parameters: method as in ref [103] = [103]; 103. Dilda P. Foucault A.S. Serova M. On S. Raynal S. Veillet S. Dioh W. Lafont R. BIO101, a drug candidate targeting Mas receptor for the treatment of age-reated muscle degeneration. From molecular t; conditions: C2C12 myotubes, ref [103], cited from earlier work
[3] = system: myostatin gene expression in C2C12 cells; conditions: C2C12 myotubes, ref [103], cited from earlier work
Erβ [4] = system: Erβ; parameters: method as in PMID 24974955; conditions: ref [54]; cited from earlier work
ERα = system: ERα; parameters: method as in PMID 18220764; conditions: cited from earlier work
Erβ [5] = system: Erβ; parameters: method as in PMID 18220764; conditions: cited from earlier work
[6] = parameters: method as in PMID 31190566; conditions: high fructose fed gerbils; ref [61]; cited from earlier work
rats = system: rats; parameters: method as in ref [121] = [121]; 121. Ogawa S. Nishimoto N. Matsuda H. Pharmacology of ecdysones un vertebrates Invertebrate Endocrinology and Hormonal Heterophylly Burdette W.J. Springer Berlin, Germany 1974 341 344; conditions: ref [121]; cited from earlier work
ovariectomized rats = system: ovariectomized rats; parameters: method as in Seidlova-Wuttke et al. [57],[94]; conditions: up to 500 mg/kg daily for 3 months, ref Seidlova-Wuttke et al. [57],[94]; cited from earlier work
[7] = parameters: method as in PMID 4650153; conditions: mice, oral; ref [122]; cited from earlier work
[8] = parameters: method as in doi:10.1016/0924-977X(96)83007-0; conditions: 7.5–10 mg/day, 1 month; ref [165]; cited from earlier work
[9] = parameters: method as in doi:10.1007/BF02234932; conditions: 15 mg/day, 10 days; ref [166]; cited from earlier work
[10] = 30 days, ref [158], cited from earlier work
Lambliasis = system: Lambliasis; parameters: method as in PMID 20614521; conditions: 5 mg 4×/day, 10 days; ref [168]; cited from earlier work
Hymenolepiasis = system: Hymenolepiasis; parameters: method as in PMID 22536744; conditions: 5 mg 3×/day, 2 weeks; ref [169]; cited from earlier work
[11] = parameters: method as in doi:10.1055/s-0032-1320272; conditions: overweight, 2 × 50 mg/day; ref [170]; cited from earlier work
[12] = parameters: method as in ref [174] = [174]; 174. Thole S.W. The Metabolic Syndrome: The Effects of β-ecdysone on Selected Body Parameters and Serum Lipids on the Metabolic Syndrome Ph.D. Thesis University of Göttingen Göttingen, Germany 2018; conditions: ref [174], cited from earlier work
[13] = parameters: method as in ref [177] = [177]; 177. Dustmukhamedova D.K.H. Kamilovz A.T. The characteristic of energy metabolism disorders and its correction in children with celiac disease Am. J. Med. Medic. Sci. 2020 10 780 783; conditions: children 3–14, 2.5 mg/kg/day, 14 days; ref [177]; cited from earlier work
bullfrogs = conditions: up to 600 mg/kg in the lymph sinus, ref [121]; cited from earlier work
rabbits = conditions: up to 100 mg/kg, ref [121]; cited from earlier work
[14] = oral; ref [127],[128]; cited from earlier work
[15] = cited from earlier work
[16] = patients with metabolic syndrome
[17] = humans, ingestion of 434 mg, ref [134]
[18] = humans, single oral intake of 20 mg, RIA and LC-MS

Structure (SMILES): CC(C)(O)CC[C@@H](O)[C@](C)(O)[C@H]1CC[C@@]2(O)C3=CC(=O)[C@@H]4C[C@@H](O)[C@@H](O)C[C@]4(C)[C@H]3CC[C@]12C [20E, 2β,3β,14α,20R,22R,25-hexahydroxy-5β-cholest-7-en-6-one]
- NOAEL at 39 week [1]: 1000 mg/kg
- genotoxic effects [2]: no genotoxic effects
- optimal concentration for anabolic effect on protein synthesis (C2C12 cells; 0.01–10 μM tested): 1 µM
- protein synthesis stimulatory activity (C2C12 cells; 20E 0.01–10 μM, IGF-1 100 ng/mL): equally active as insulin-like growth factor-1 (IGF-1)
- concentration with significant difference from control in myostatin gene expression ([3]; 0.001 to 10 μM tested): 1 to 10 µM
- myostatin gene expression ([3]; 6 h treatment): mimics the effect of IGF-1 in a dose-dependent manner
- activation of ERE reporter gene (Erβ [4]): could be activated dose dependently
- binding to nuclear receptor (ERα): negative
- binding to nuclear receptor (Erβ [5]): negative
- effect on adiposity [6]: efficient
- sex hormonal activity, anti-inflammatory or anabolic effects (rats): did not have
- detrimental effects (ovariectomized rats): no stated detrimental effects
- bioavailability [7]: low
- radioactivity crossing the intestinal tract, of that administered [7]: < 2%
- route of elimination [7]: essentially fecal
- patients with improvement of libido and sexual activity [8]: Improvement of libido and sexual activity in 75% of patients
- kidney function and microcirculation [9]: Improvement of kidney function and of microcirculation
- sexual function output ([10]; 5 mg 3×/day, age 40–60 M): Improvement of sexual function during recovery from myocardial infarction
- sexual function output ([10]; 5 mg, 2×/day): Improved sperm quality and copulative function in patients with disturbed spermatogenesis as a complication of urologic diseases
- parasite elimination (Lambliasis): Therapy eliminated most parasites within 10 days
- parasitological efficacy (Hymenolepiasis): 36.4%
- symptoms (Hymenolepiasis): Reduction in symptoms
- change in C-reactive protein [11]: −38%
- change in body fat [11]: −7.6%
- change in body weight [11]: −1.3%
- change in total cholesterol [11]: −17%
- change in triglycerides [11]: −37%
- change in waist circumference [11]: −3.2%
- muscle increase [11]: +2.9%
- output of metabolic syndrome study ([12]; 40 or 90 mg/day, 3–6–9 months): Reductions in body mass, proportion of body fat, waist cicumference and hsCRP, retention of muscle mass
- body parameters versus control group [12, 16]: continuous and significant loss of body mass, fat percentage, and waist diameter
- effect on serum lipids [12, 16]: no significant effect on serum lipids
- hsCRP level [12, 16]: marked reduction
- output of celiac disease study [13]: Reduction in symptoms Improvement of energy metabolism
- effects after administration (bullfrogs): no effects were seen
- effects after administration (rabbits): no effects were seen
- bioavailability [14]: ca. 1%
- total urinary excretion of 20E [15, 17]: 5 mg
- urinary excretion, of the ingested amount [15, 17]: approximately 1%
- urinary peak level ([15]; humans, ingestion of ca. 15 mg, ref Simon and Koolman [132]): approximately 0.5 μM
- time of urinary peak of detectable ecdysteroids [15, 18]: 3 to 4 h
- total quantity of detectable ecdysteroids in urine [15, 18]: 1 to 2 mg
- effective half-time of elimination from the blood ([15]; in vivo): 9 h
- effective half-time of elimination from the urine ([15]; in vivo): 3.3 h
- time of plasma titre maximum ([15]; in vivo): ca. 30 min

Reference: publication PMC8146789, “20-Hydroxyecdysone, from Plant Extracts to Clinical Use: Therapeutic Potential for the Treatment of Neuromuscular, Cardio-Metabolic and Respiratory Diseases” (Biomedicines, 2021)
